What was measured:
Axl [1] = molecular target: T1, Axl (Homo sapiens, UniProt P30530); test: HTRF KinEASE-TK biochemical potency assay, AXL; parameters: purchased Invitrogen; details: 5 nM AXL, 700 μM ATP, 800 nM TK Substrate-biotin
T1 sequence (P30530 26-894): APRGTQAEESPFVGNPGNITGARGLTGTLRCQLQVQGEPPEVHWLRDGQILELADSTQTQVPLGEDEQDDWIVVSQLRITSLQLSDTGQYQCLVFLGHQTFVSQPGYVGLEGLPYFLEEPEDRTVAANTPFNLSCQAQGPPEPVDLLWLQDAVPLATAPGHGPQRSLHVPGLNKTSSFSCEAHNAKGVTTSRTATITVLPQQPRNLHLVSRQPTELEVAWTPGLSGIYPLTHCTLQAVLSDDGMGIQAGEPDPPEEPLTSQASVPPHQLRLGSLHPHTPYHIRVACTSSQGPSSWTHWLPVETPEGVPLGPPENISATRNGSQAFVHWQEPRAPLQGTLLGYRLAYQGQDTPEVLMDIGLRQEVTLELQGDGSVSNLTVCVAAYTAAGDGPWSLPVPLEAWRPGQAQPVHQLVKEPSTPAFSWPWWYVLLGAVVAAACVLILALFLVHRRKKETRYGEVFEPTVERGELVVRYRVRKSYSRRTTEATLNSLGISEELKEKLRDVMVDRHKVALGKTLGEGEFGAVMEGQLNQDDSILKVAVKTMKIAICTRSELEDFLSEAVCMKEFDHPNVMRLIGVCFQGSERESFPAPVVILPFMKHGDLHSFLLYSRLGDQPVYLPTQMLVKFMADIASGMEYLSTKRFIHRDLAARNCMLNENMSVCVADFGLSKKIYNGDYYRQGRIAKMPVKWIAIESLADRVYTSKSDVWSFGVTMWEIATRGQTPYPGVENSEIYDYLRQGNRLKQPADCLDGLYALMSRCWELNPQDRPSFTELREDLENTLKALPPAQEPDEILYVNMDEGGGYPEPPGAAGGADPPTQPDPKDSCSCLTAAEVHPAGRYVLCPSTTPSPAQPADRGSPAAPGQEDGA
Outline: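 Recombinant human kinase preincubated 1 h at RT with compound, then reacted 2 h at RT with final 5 nM AXL or 1 nM TYRO3/MER, 800 nM TK Substrate-biotin and 700 μM ATP in HEPES pH 7.4, 10 mM MgCl2, 1% DMSO. Phosphorylation read by HTRF 665/620 ratio, expressed as percent activity.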

Axl [2] = molecular target: T1, Axl; test: Axl NanoBRET intracellular kinase assay (intracellular binding, Cell Binding); parameters: host or cells: HEK-293; details: HEK-293 cells transfected with Axl-NanoLuc fusion vector; 0.35 μM K-5 NanoBRET tracer
Outline: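 HEK-293 cells transiently expressing Axl-NanoLuc fusion were pre-incubated with compound for 1 h at 37 °C (0.5% DMSO), then with 0.35 μM K-5 tracer for 2 h. Tracer displacement read as reduced BRET ratio (610/450 nm); IC50 from 4-parameter fit.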

SMILES | IC50 (Axl [1]) | IC50 (Axl [2])
CC(C)(O)c1ccc(-c2n[nH]c3ncc(-c4cc5c(cn4)CCC(N4CCCC4)CC5)cc23)cc1Cl (centres unmarked) [Example 59, 2-(2-Chloro-4-{5-[7-(pyrrolidin-1-yl)-5H,6H,7H,8H,9H-cyclohepta[c]pyridin-3-yl]-1H-pyrazolo[3,4-b]pyridin-3-yl}phenyl)propan-2-ol] | < 100 nM | < 100 nM
COCCOc1ccc(-c2n[nH]c3ncc(-c4ccc5c(c4)CCC(C)(N4CCC[C@H]4C)CC5)cc23)cc1 (stereo partly drawn) [Example 110, 3-(4-(2-Methoxyethoxy)phenyl)-5-(7-methyl-7-((R)-2-methylpyrrolidin-1-yl)-6,7,8,9-tetrahydro-5H-benzo[7]annulen-2-yl)-1H-pyrazolo[3,4-b]pyridine] | < 100 nM | < 100 nM
C[C@@H]1CCCN1C1(C)CCc2ccc(-c3cnc4[nH]nc(-c5cnc(C(C)(C)O)c(Cl)c5)c4c3)cc2CC1 (stereo partly drawn) [Example 98, 2-[3-Chloro-5-(5-{7-methyl-7-[(2R)-2-methylpyrrolidin-1-yl]-6,7,8,9-tetrahydro-5H-benzo[7]annulen-2-yl}-1H-pyrazolo[3,4-b]pyridin-3-yl)pyridin-2-yl]propan-2-ol] | < 100 nM | 100 to 1000 nM
CC(C)(O)c1ccc(-c2n[nH]c3ncc(-c4ccc5c(c4)CC4CCC(C5)C4N4CCCC4)cc23)cc1Cl (centres unmarked) [Example 61, 2-(2-Chloro-4-{5-[13-(pyrrolidin-1-yl)tricyclo[8.2.1.0^3,8]trideca-3,5,7-trien-5-yl]-1H-pyrazolo[3,4-b]pyridin-3-yl}phenyl)propan-2-ol] | > 1000 nM | > 1000 nM
C[C@@H]1CCCN1C1(C)CCc2ccc(-c3cnc4[nH]nc(-c5ccc(C(=O)N[C@H]6CCOC6)cc5)c4c3)cc2CC1 (stereo partly drawn) [Example 117, 4-(5-{7-Methyl-7-[(2R)-2-methylpyrrolidin-1-yl]-6,7,8,9-tetrahydro-5H-benzo[7]annulen-2-yl}-1H-pyrazolo[3,4-b]pyridin-3-yl)-N-[(3S)-oxolan-3-yl]benzamide] | < 100 nM | < 100 nM
C[C@@H]1CCCN1C1(C)CCc2ccc(-c3cnc4[nH]nc(-c5ccc(S(=O)(=O)N6CCC6)cc5)c4c3)cc2CC1 (stereo partly drawn) [Example 104, (2R)-1-(2-{3-[4-(Azetidine-1-sulfonyl)phenyl]-1H-pyrazolo[3,4-b]pyridin-5-yl}-7-methyl-6,7,8,9-tetrahydro-5H-benzo[7]annulen-7-yl)-2-methylpyrrolidine] | < 100 nM | < 100 nM
COCCOc1ccc(-c2n[nH]c3ncc(-c4ccc5c(c4)CC[C@@H](N4C6COCC4C6)CC5)cc23)cc1 [Example 123, 6-[(7S)-2-{3-[4-(2-methoxyethoxy)phenyl]-2H-pyrazolo[3,4-b]pyridin-5-yl}-6,7,8,9-tetrahydro-5H-benzo[7]annulen-7-yl]-3-oxa-6-azabicyclo[3.1.1]heptane] | < 100 nM | < 100 nM

Source: patent US20240246967A1, “AXL COMPOUNDS” (ARCUS BIOSCIENCES, INC., priority 2021, published 2024)
